Data reported in PubChem BioAssay (NCI).
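Tested at 5 concentrations; 48 h exposure; 96-well plates; endpoints linearly interpolated, else capped at highest concentration. At the TGI there is no net growth.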 Where a SMILES comes first, the peptide text is derived from it. [ ]: non-standard residue; d: D form. The star is where a group is joined. ξ: configuration not given here. NMeF = CN[CH](Cc1ccccc1)C(=O)O; ξNMe2Val = CC(C)C(C(=O)*)N(C)C; NMeV = CN[CH](C(=O)O)C(C)C; ξNMeV = CNC(C(=O)O)C(C)C; Boc = CC(C)(C)OC(=O)*; OBn = c1ccc(CO*)cc1; OtBu = CC(C)(C)O*

Key:
Experiment in all cases: NCI tumour cell line growth inhibition, 48 h
KM12 colon = tested on: KM12 colon
HOP-92 NSCLC = tested on: HOP-92 NSCLC
CCRF-CEM leukemia = tested on: CCRF-CEM leukemia
SR leukemia = tested on: SR leukemia
OVCAR-5 ovarian = tested on: OVCAR-5 ovarian
SK-MEL-5 melanoma = tested on: SK-MEL-5 melanoma
NCI-H23 lung = tested on: NCI-H23 lung
UO-31 renal = tested on: UO-31 renal
M14 melanoma = tested on: M14 melanoma
UACC-62 melanoma = tested on: UACC-62 melanoma
SF-295 CNS = tested on: SF-295 CNS
MOLT-4 leukemia = tested on: MOLT-4 leukemia
OVCAR-4 ovarian = tested on: OVCAR-4 ovarian
HCC-2998 colon = tested on: HCC-2998 colon
SNB-75 CNS = tested on: SNB-75 CNS
NCI-H226 lung = tested on: NCI-H226 lung
HCT-15 colon = tested on: HCT-15 colon
NCI/ADR-RES ovarian = tested on: NCI/ADR-RES ovarian
MDA-MB-435 = tested on: MDA-MB-435

SMILES | TGI (KM12 colon) [µM] | TGI (HOP-92 NSCLC) [µM] | TGI (CCRF-CEM leukemia) [µM] | TGI (SR leukemia) [µM] | TGI (OVCAR-5 ovarian) [µM] | TGI (SK-MEL-5 melanoma) [µM] | TGI (NCI-H23 lung) [µM] | TGI (UO-31 renal) [µM] | TGI (M14 melanoma) [µM] | TGI (UACC-62 melanoma) [µM] | TGI (SF-295 CNS) [µM] | TGI (MOLT-4 leukemia) [µM] | TGI (OVCAR-4 ovarian) [µM] | TGI (HCC-2998 colon) [µM] | TGI (SNB-75 CNS) [µM] | TGI (NCI-H226 lung) [µM] | TGI (HCT-15 colon) [µM] | TGI (NCI/ADR-RES ovarian) [µM] | TGI (MDA-MB-435) [µM]
Cc1nn2c(c1C#N)NNc1c-2sc(=N)nnc1=O | > 100 | > 100 | > 100 | > 100 | > 100 | > 100 | > 100 | > 100 | > 100 | > 100 | > 100 | > 100 | > 100 |  |  |  |  |  | 
CCCCOC(=O)NC(=O)c1cn(CCCOC(=O)CCCCCCCCC(=O)OCCCn2cc(C(=O)NC(=O)OCCCC)c(=O)n(C)c2=O)c(=O)n(C)c1=O | > 100 | > 100 | > 100 | > 100 | > 100 | > 100 | > 100 | > 100 | > 100 | > 100 | > 100 | > 100 | > 100 | > 100 | > 100 | > 100 | > 100 |  | 
CC(C)C(C(=O)N(C)C(Cc1ccccc1)C(=O)N(C)C(C(=O)N(C)C(C(=O)N1CCCC1C(=O)OC(C)(C)C)C(C)C)C(C)C)N(C)C (stereo not drawn) (ξNMe2Val-[NMeF][NMeV][NMeV]P-OtBu; configuration not given here) | > 100 |  | > 100 | > 100 |  | 38.8 | > 100 | > 100 | 51.2 | > 100 | > 100 | 33.7 |  | 53.3 |  | > 100 | > 100 |  | 
COc1ccc(/C=C/C(=O)c2ccc(Br)cc2)cc1 | > 100 |  | > 100 | > 100 | > 100 | > 100 | > 100 | > 100 | > 100 | > 100 | > 100 | > 100 | > 100 | > 100 | > 100 | > 100 | > 100 | > 100 | > 100
O=C(CC(C(=O)c1cccs1)c1ccsc1)c1ccc(Cl)s1 (stereo not drawn) | > 100 |  | > 100 | > 100 | > 100 | > 100 | > 100 | > 100 | > 100 | > 100 |  | > 100 | > 100 | > 100 | > 100 | > 100 | > 100 | > 100 | > 100
C=CCOC(=O)Cn1ccc(=O)[nH]c1=O | > 100 |  | > 100 | > 100 | > 100 | > 100 | > 100 | > 100 | > 100 | > 100 | > 100 | > 100 |  | > 100 | > 100 | > 100 | > 100 | > 100 | 
O=C(O)c1nn(-c2ccccc2)nc1-c1nn(-c2ccccc2)nc1C(=O)O | > 100 | > 100 | > 100 | > 100 | > 100 | > 100 | > 100 | > 100 | > 100 | > 100 | > 100 | > 100 | > 100 | > 100 |  | > 100 | > 100 | > 100 | > 100
CCSc1nc(N/N=C/c2cccs2)c2cnn(CO)c2n1 | 12.4 | > 100 |  | 26.7 | 27 | 12.9 | 17.3 | 10.2 | 22.9 | 22.5 | 29.8 |  | > 100 |  | 28.7 | 9.09 | 15.7 | 15.9 | 18.9
Cc1ccc(NC(=O)C2C3CCC(O3)C2C(=O)O)cc1 (stereo not drawn) | > 100 | > 92.9 | > 75.5 | 43.6 | > 100 | > 100 | > 100 | > 100 | > 76.4 | > 100 | > 100 | > 100 | > 100 | > 100 | > 100 | > 100 | > 65.3 |  | 
CSC(C1c2ccccc2N(C)c2[nH]c(=O)n(C)c(=O)c21)S(=O)(=O)c1ccc(C)cc1 (stereo not drawn) |  | > 100 | > 100 |  | > 100 | > 100 | > 100 | > 100 |  | > 100 | > 100 | > 100 | > 100 | > 100 | > 100 | > 100 | > 100 |  | 
CCCCCCCCCCCC[N+]12CC[N+](C)(CC1)CC2 | 20.7 | 47.7 | 53.3 | 26.7 | 41 | > 100 | 60.9 | > 100 | > 100 | > 100 | > 100 | > 100 | > 100 | 23 | 37.1 | 66.5 |  |  | 
Brc1ccc(-c2cc3c(cc2C2SCCS2)OCO3)cc1 | > 100 |  | > 100 | 86.9 | > 100 | > 100 | > 100 | 90.4 | > 100 |  | > 100 | > 100 | > 100 | > 100 | 39.9 | 40.3 | > 100 |  | 
CCCN(CCC)C(=O)c1c(N2CCN(C)CC2)c2cccnc2n2c(C)cnc12 | > 100 | > 100 | > 100 | > 100 | > 100 | > 100 | > 100 | > 100 | > 100 | > 100 | > 100 | > 100 | > 100 |  | > 100 | > 100 | > 100 | > 100 | > 100
CC(C)C(C(=O)N(C)[C@H](C(=O)N1CCC[C@H]1C(=O)N(C)[C@@H](Cc1ccccc1)C(=O)OCc1ccccc1)C(C)C)N(C)C(=O)[C@@H](NC(=O)OC(C)(C)C)C(C)C (stereo partly drawn) (Boc-V[ξNMeV][NMeV]P[NMeF]-OBn) |  | 30.4 | > 31.6 | > 31.6 | > 31.6 | 15.5 | > 100 | > 31.6 | > 100 | > 31.6 | > 31.6 | 21.3 | > 100 |  | > 100 | > 100 | > 31.6 |  | 
